This note sets out measurements from PubChem BioAssay AID268 (DTP/NCI, 2004).

The test concerns CD2F1 mice, P1798 lymphosarcoma sc, tumor weight T/C. The test can be described thus: NCI In Vivo Anticancer Drug Screen. Data for tumor model P1798 Lymphosarcoma (subcutaneous) in CD2F1 (CDF1) mice. Conditions: endpoint: mean tumor weight, higher = larger tumour. As to the method:
The antitumor activity of compounds was measured in mice bearing transplantable tumors. Survival or tumor size were measured and the results are expressed as the measurement made in the treated group (T) divided by the measurement made in the vehicle treated control group (C). The tumor model used in this assay is P1798 Lymphosarcoma (subcutaneous) in CD2F1 (CDF1) mice

Where [1] appears, read: dose: 12.5 mg/kg/injection, schedule: Q01DX005 (sc), vehicle: steriod suspending solution.
[2] abbreviates: dose: 12.5 mg/kg/injection, schedule: Q01DX010 (sc), vehicle: steriod suspending solution.
The mark [3] stands for this setting: dose: 25.0 mg/kg/injection, schedule: Q01DX005 (sc), vehicle: steriod suspending solution.
The mark [4] stands for this setting: dose: 25.0 mg/kg/injection, schedule: Q03DX004 (sc), vehicle: steriod suspending solution.
Setting [5] is: dose: 50.0 mg/kg/injection, schedule: Q01DX005 (sc), vehicle: steriod suspending solution.
Setting [6] is: dose: 50.0 mg/kg/injection, schedule: Q02DX010 (sc), vehicle: steriod suspending solution.
[7] abbreviates: dose: 50.0 mg/kg/injection, schedule: Q03DX004 (sc), vehicle: steriod suspending solution.
[8] abbreviates: dose: 100.0 mg/kg/injection, schedule: Q01DX005 (sc), vehicle: steriod suspending solution.
[9] abbreviates: dose: 100.0 mg/kg/injection, schedule: Q02DX010 (sc), vehicle: steriod suspending solution.
Setting [10] is: dose: 100.0 mg/kg/injection, schedule: Q03DX004 (sc), vehicle: steriod suspending solution.
The mark [11] stands for this setting: dose: 50.0 mg/kg/injection, schedule: Q01DX010 (ip), vehicle: saline.
The mark [12] stands for this setting: dose: 100.0 mg/kg/injection, schedule: Q01DX010 (ip), vehicle: saline.
Where [13] appears, read: dose: 200.0 mg/kg/injection, schedule: Q01DX010 (ip), vehicle: saline.
[14] abbreviates: dose: 25.0 mg/kg/injection, schedule: Q01DX010 (ip), vehicle: saline.
[15] abbreviates: dose: 2.5 mg/kg/injection, schedule: Q01DX010 (ip), vehicle: saline.
[16] abbreviates: dose: 10.0 mg/kg/injection, schedule: Q01DX010 (ip), vehicle: saline.
The mark [17] stands for this setting: dose: 20.0 mg/kg/injection, schedule: Q01DX010 (ip), vehicle: saline.
[18] abbreviates: dose: 25.0 mg/kg/injection, schedule: Q01DX010 (sc), vehicle: steriod suspending solution.
Setting [19] is: dose: 12.5 mg/kg/injection, schedule: Q01DX010 (ip), vehicle: saline.
Where [20] appears, read: dose: 40.0 mg/kg/injection, schedule: Q01DX010 (ip), vehicle: saline.

Each structure is given as a SMILES string. “And” between values parts separate entries of the source, which are not always exact repeats. Equal entries are not always repeated.

Take `C[C@]12C=CC(=O)C=C1CC[C@@H]1[C@@H]2[C@@H](O)C[C@@]2(C)[C@H]1CC[C@]2(O)C(=O)CO`: the T/C was 41 % of control under setting [1]; 42 % of control and 46 % of control under setting [2]; 48 % of control under setting [3]; 100 % of control (dose: 25.0 mg/kg/injection, schedule: Q02DX010 (sc), vehicle: steriod suspending solution); 87 % of control under setting [4]; 22 % of control under setting [5]. Moreover, the T/C is 100 % of control under setting [6]; 92 % of control under setting [7]; 20 % of control under setting [8]; 96 % of control under setting [9]; 100 % of control under setting [10].
In the case of `O[C@H](CN1CC1)[C@@H](O)CN1CC1`, the T/C is 76 % of control (dose: 62.5 micrograms/kg/injection, schedule: Q01DX010 (ip), vehicle: saline); 62 % of control (dose: 125.0 micrograms/kg/injection, schedule: Q01DX010 (ip), vehicle: saline); 45 % of control (dose: 250.0 micrograms/kg/injection, schedule: Q01DX010 (ip), vehicle: saline); 31 % of control (dose: 500.0 micrograms/kg/injection, schedule: Q01DX010 (ip), vehicle: saline).
For the molecule `Nc1nc(=O)n(C2CC(O)C(CO)O2)cc1Br` (stereo unspecified), the T/C is 81 % of control under setting [11]; 65 % of control under setting [12]; 39 % of control under setting [13]; 29 % of control (dose: 400.0 mg/kg/injection, schedule: Q01DX010 (ip), vehicle: saline); 7 % of control (dose: 800.0 mg/kg/injection, schedule: Q01DX010 (ip), vehicle: saline).
Take `NC(=O)n1cccn1`: the T/C runs as follows: under setting [14], 84 % of control; under setting [11], 75 % of control; under setting [12], 71 % of control; under setting [13], 45 % of control.
As for `Cn1cnc([N+](=O)[O-])c1Sc1nc(N)nc2nc[nH]c12`, the T/C is 69 % of control under setting [15]; 75 % of control (dose: 5.0 mg/kg/injection, schedule: Q01DX010 (ip), vehicle: saline); 57 % of control under setting [16]; 54 % of control under setting [17].
For `C[C@]12C[C@H](O)[C@H]3[C@@H](CCC4=CC(=O)CC[C@@]43C)[C@@H]1CC[C@@H]2C(=O)CO`, the T/C is, setting by setting: under setting [1], 88 % of control; under setting [3], 97 % of control; under setting [18], 91 % of control and 69 % of control; under setting [4], 91 % of control; under setting [5], 63 % of control; under setting [6], 91 % of control. For the same molecule, the T/C runs as follows: under setting [7], 56 % of control; (dose: 75.0 mg/kg/injection, schedule: Q01DX010 (sc), vehicle: steriod suspending solution) 105 % of control; (dose: 75.0 mg/kg/injection, schedule: Q02DX010 (sc), vehicle: steriod suspending solution) 101 % of control; under setting [8], 32 % of control; under setting [9], 101 % of control; under setting [10], 33 % of control.
Consider `NCCCCC(N)C(=O)NCCCCCCCCCCNC(=O)C(N)CCCCN` (stereo unspecified), for which the T/C was 106 % of control (dose: 6.25 mg/kg/injection, schedule: Q01DX010 (ip), vehicle: saline); 99 % of control under setting [19]; 122 % of control under setting [14]; 107 % of control under setting [11].
For the molecule `CC[n+]1c(-c2ccccc2)c2cc(N)ccc2c2ccc(N)cc21`, the T/C (dose: 1.25 mg/kg/injection, schedule: Q01DX010 (ip), vehicle: saline) was 108 % of control; the T/C under setting [15] was 97 % of control; the T/C under setting [16] is 4 % of control and 10 % of control.
`CC(C)(O)/C=C/C(=O)[C@](C)(O)[C@H]1[C@H](O)C[C@@]2(C)[C@@H]3CC=C4[C@@H](C[C@H](O)C(=O)C4(C)C)[C@]3(C)C(=O)C[C@]12C`: the T/C by setting is: (dose: 0.2 mg/kg/injection, schedule: Q01DX009 (ip), vehicle: saline) 91 % of control; (dose: 0.4 mg/kg/injection, schedule: Q01DX009 (ip), vehicle: saline) 81 % of control; (dose: 0.8 mg/kg/injection, schedule: Q01DX009 (ip), vehicle: saline) 95 % of control.
For the molecule `Nc1ccn(C2OC(CO)C(O)C2O)c(=O)n1` (stereo unspecified), the T/C is 12 % of control under setting [16]; 31 % of control (dose: 18.0 mg/kg/injection, schedule: Q01DX010 (ip), vehicle: saline); 10 % of control under setting [17]; 12 % of control (dose: 27.0 mg/kg/injection, schedule: Q01DX010 (ip), vehicle: saline); 4 % of control and 6 % of control under setting [20]; 1 % of control (dose: 60.0 mg/kg/injection, schedule: Q01DX010 (ip), vehicle: saline).
Turning to `OCC1OC(n2cnc3c(=S)nc[nH]c32)C(O)C1O` (stereo unspecified), the T/C by setting is: under setting [16], 65 % of control; under setting [17], 54 % of control and 57 % of control; under setting [20], 57 % of control and 61 % of control; (dose: 80.0 mg/kg/injection, schedule: Q01DX010 (ip), vehicle: saline) 40 % of control and 60 % of control; (dose: 160.0 mg/kg/injection, schedule: Q01DX010 (ip), vehicle: saline) 61 % of control.
As to `C[C@]12C=CC(=O)C=C1CC[C@@H]1[C@@H]2CC[C@]2(C)OC(=O)CC[C@@H]12`, the T/C under setting [2] was 107 % of control and 112 % of control; the T/C under setting [18] was 101 % of control and 77 % of control; the T/C (dose: 100.0 mg/kg/injection, schedule: Q01DX010 (sc), vehicle: steriod suspending solution) is 111 % of control and 115 % of control.
On to `Nc1nc(F)nc2c1ncn2C1OC(CO)C(O)C1O` (stereo unspecified), for which the T/C was 76 % of control (dose: 0.5 mg/kg/injection, schedule: Q01DX010 (ip), vehicle: saline); 94 % of control (dose: 1.0 mg/kg/injection, schedule: Q01DX010 (ip), vehicle: saline); 73 % of control (dose: 2.0 mg/kg/injection, schedule: Q01DX010 (ip), vehicle: saline); 62 % of control (dose: 3.0 mg/kg/injection, schedule: Q01DX010 (ip), vehicle: saline); 35 % of control (dose: 4.0 mg/kg/injection, schedule: Q01DX010 (ip), vehicle: saline).
In the case of `CC(=O)OC(C)(C)/C=C/C(=O)[C@](C)(O)[C@H]1[C@H](O)C[C@@]2(C)[C@@H]3CC=C4[C@@H](C[C@H](O)C(=O)C4(C)C)[C@]3(CO)C(=O)C[C@]12C`, the T/C reads like this: (dose: 0.16 mg/kg/injection, schedule: Q01DX010 (ip), vehicle: saline) 108 % of control; (dose: 0.25 mg/kg/injection, schedule: Q01DX010 (ip), vehicle: saline) 110 % of control; (dose: 0.38 mg/kg/injection, schedule: Q01DX010 (ip), vehicle: saline) 104 % of control.
For `NCCCCC(N)C(=O)NCCCCCCNC(=O)CCCCC(=O)NCCCCCCNC(=O)C(N)CCCCN` (stereo unspecified), the T/C is, setting by setting: under setting [19], 101 % of control; under setting [14], 90 % of control; under setting [11], 94 % of control; under setting [12], 110 % of control.
Take `C=C(C)C(=O)O[C@H]1CC2=C[C@@H](C[C@@]3(C)O[C@@H]3[C@H]3OC(=O)C(=C)[C@@H]31)OC2=O`: the T/C by setting is: (dose: 2.5 mg/kg/injection, schedule: Q01DX011 (sc), vehicle: saline) 94 % of control; (dose: 5.0 mg/kg/injection, schedule: Q01DX011 (sc), vehicle: saline) 73 % of control; (dose: 10.0 mg/kg/injection, schedule: Q01DX011 (sc), vehicle: saline) 116 % of control.
As for `C=CCOc1ccc2c(c1)CC[C@@H]1[C@@H]2CC[C@]2(C)[C@@H](O)[C@@H](O)C[C@@H]12`, the T/C is, setting by setting: (dose: 6.25 mg/kg/injection, schedule: Q01DX010 (sc), vehicle: steriod suspending solution) 98 % of control and 82 % of control; under setting [2], 77 % of control and 88 % of control.
